Data taken from US20250382317A1 (EVEXTA BIO, priority 2022, published 2025).
Converted amounts (≈) assume the structure as drawn. Where a name gives a salt, the structure may show the parent alone.

What was measured:
[1] = Solubility in HCl 0.01N (pH 1.0) and phosphate saline buffer (pH 7.4), LC-MSMS; details: thermodynamic from solid
Procedure: (§1) For each compound, three solutions were prepared in HCl 0.01N (pH 1.0) at 500 μM and three solutions in phosphate saline buffer (pH 7.4) at 500 μM. The solutions were prepared by dissolving each compound in the adequate solvent in opaque tubes and stirred 24 hours at room temperature. After 24 hours, for each solution, an aliquot was centrifuged 10 minutes at 3 500 rpm in order to separate the insoluble fraction from the soluble fraction. The supernatant was taken and diluted in H2O (1/20) before injection in LC-MSMS. After HPLC separation, analytes are detected and quantified by mass spectrometry. A standard curve is performed for each test substance. The solubility of each test substance was determined by calculating the concentration of each supernatant according to the standard curve.

physchem = details: pH 7.4, aqueous buffer, thermodynamic from solid
Procedure: as §1

Cathepsin B = Cathepsin B (Homo sapiens, UniProt P07858); experiment: Cathepsin-B mediated drug release test; type: in vitro ADME; details: 10 units/mL activated Cathepsin B, 25 mM sodium acetate pH 5.5, 37° C., 0-120 min, LC-MS of released free drug (FIG. 1)
Procedure: Drug release of (Z)-3-(2-(5-bromo-1H-indol-3-yl)-2-cyanovinyl)-4-methoxybenzonitrile from Example 27 was performed using cathepsin B enzyme.
Cathepsin B (50 units/mL) was preincubated in activation buffer containing 25 mM sodium acetate (pH 5.5), 30 mM DTT and 15 mM EDTA for 15 min at 37° C. and then added as a 20% (v/v) addition to initiate each reaction.
Final in vitro cathepsin B reaction mixtures will contain 25 mM sodium acetate (pH 5.5), 10 units/mL activated Cathepsin B, 30 mM DTT and 15 mM EDTA, and 0.5 μg/mL of Example 27 in a 2.5% (v/v) incubation sample background.
Reactions will be terminated by addition of organic solvent and the supernatant analyzed by LC-MS to quantify released free drug.

[2] = HCl 0.01N, pH 1, simulated gastric fluid
[3] = phosphate saline buffer, pH 7.4, aqueous buffer

SMILES | solubility at 24 h [1, 2] | solubility at 24 h [1, 3] | solubility (physchem) | Drug release of (Z)-3-(2-(5-bromo-1H-indol-3-yl)-2-cyanovinyl)-4-methoxybenzonitrile (Cathepsin B)
COc1ccc(C#N)cc1/C=C(\C#N)c1c[nH]c2ccc(Br)cc12 [Example 38 of WO 2014/086964, (Z)-3-(2-(5-bromo-1H-indol-3-yl)-2-cyanovinyl)-4-methoxybenzonitrile, reference compound] | < 5 µM | < 5 µM | – | –
COc1ccc(C#N)cc1/C=C(\C#N)c1cn(C(=O)OCc2ccc(O[C@@H]3O[C@H](C(=O)O)[C@@H](O)[C@H](O)[C@H]3O)cc2)c2ccc(Br)cc12 [Example 19, (2S,3S,4S,5R,6S)-6-[4-[[5-bromo-3-[(Z)-1-cyano-2-(5-cyano-2-methoxy-phenyl)vinyl]indole-1-carbonyl]oxymethyl]phenoxy]-3,4,5-trihydroxy-tetrahydropyran-2-carboxylic acid] | – | 452 µM (≈ 318 µg/mL) | – | –
COc1ccc(C#N)cc1/C=C(\C#N)c1cn(C(=O)OCc2ccc(NC(=O)[C@H](CCCNC(N)=O)NC(=O)[C@@H](NC(=O)CCOCCOCCOCCOCCNC(=O)CCN3C(=O)C=CC3=O)C(C)C)cc2)c2ccc(Br)cc12 [Example 22, [4-[[(2S)-2-[[(2S)-2-[3-[2-[3-(2,5-dioxopyrrol-1-yl)propanoylamino]ethoxy](peg4)propanoylamino]-3-methyl-butanoyl]amino]-5-ureido-pentanoyl]amino]phenyl]methyl 5-bromo-3-[(Z)-1-cyano-2-(5-cyano-2-methoxy-phenyl)vinyl]indole-1-carboxylate] | – | – | 2 µM (≈ 2.36 µg/mL) | –
COc1ccc(C#N)cc1/C=C(\C#N)c1cn(C(=O)CCCCP(=O)(O)O)c2ccc(Br)cc12 [Example 1, (Z)-5-(5-bromo-3-(1-cyano-2-(5-cyano-2-methoxyphenyl)vinyl)-1H-indol-1-yl)-5-oxopentylphosphonic acid] | – | 497 µM (≈ 270 µg/mL) | – | –
COc1ccc(C#N)cc1/C=C(\C#N)c1cn(C(=O)CCP(=O)([O-])O)c2ccc(Br)cc12.[Na+] [Example 7, sodium (Z)-hydrogen3-(5-bromo-3-(1-cyano-2-(5-cyano-2-methoxyphenyl)vinyl)-1H-indol-1-yl)-3-oxopropylphosphonate] | < 5 µM | 103 µM | – | –
COc1ccc(C#N)cc1/C=C(\C#N)c1cn(C(=O)CCP(=O)(O)O)c2ccc(Br)cc12 [Example 2, (Z)-3-(5-bromo-3-(1-cyano-2-(5-cyano-2-methoxyphenyl)vinyl)-1H-indol-1-yl)-3-oxopropylphosphonic acid] | – | 12 µM (≈ 6.17 µg/mL) | – | –
COc1ccc(C#N)cc1/C=C(\C#N)c1cn(C(=O)CCCP(=O)(O)O)c2ccc(Br)cc12 [Example 16, (S)-2,6-diaminohexanoic acid compound with (Z)-4-(5-bromo-3-(1-cyano-2-(5-cyano-2-methoxyphenyl)vinyl)-1H-indol-1-yl)-4-oxobutylphosphonic acid (2:1)] | < 10 µM | 35 µM (≈ 18.5 µg/mL) | – | –
COc1ccc2c(/C(C#N)=C/c3cc(C#N)ccc3OC)cn(C(=O)CCCCCCP(=O)([O-])O)c2c1.[Na+] [Example 12, sodium (Z)-hydrogen7-(3-(1-cyano-2-(5-cyano-2-methoxyphenyl)vinyl)-6-methoxy-1H-indol-1-yl)-7-oxoheptylphosphonate] | 109 µM | 465 µM | – | –
COc1ccc(C#N)cc1/C=C(\C#N)c1cn(C(=O)CCCP(=O)([O-])[O-])c2ccc(Br)cc12.[Na+].[Na+] [Example 13, disodium (Z)-4-(5-bromo-3-(1-cyano-2-(5-cyano-2-methoxyphenyl)vinyl)-1H-indol-1-yl)-4-oxobutylphosphonate] | 19 µM | 45 µM | – | –
COc1ccc(C#N)cc1/C=C(\C#N)c1cn(C(=O)OCc2ccc(NC(=O)[C@H](CCCNC(N)=O)NC(=O)[C@@H](NC(=O)C(CS(=O)(=O)O)NC(=O)OC(C)(C)C)C(C)C)cc2)c2ccc(Br)cc12 (some centres unmarked) [Example 24] | – | – | 201 µM (≈ 208 µg/mL) | –
COc1ccc(C#N)cc1/C=C(\C#N)c1cn(C(=O)CCCCP(=O)([O-])[O-])c2ccc(Br)cc12.[Na+].[Na+] [Example 14, disodium (Z)-5-(5-bromo-3-(1-cyano-2-(5-cyano-2-methoxyphenyl)vinyl)-1H-indol-1-yl)-5-oxopentylphosphonate] | – | 180 µM | – | –
COc1ccc2c(/C(C#N)=C/c3cc(C#N)ccc3OC)cn(C(=O)CCCCP(=O)(O)O)c2c1 [Example 4, (Z)-5-(3-(1-cyano-2-(5-cyano-2-methoxyphenyl)vinyl)-6-methoxy-1H-indol-1-yl)-5-oxopentylphosphonic acid] | – | 33 µM (≈ 16.3 µg/mL) | – | –
COc1ccc(C#N)cc1/C=C(\C#N)c1cn(C(=O)CCCCCCP(=O)(O)O)c2ccc(Br)cc12 [Example 3, (Z)-7-(5-bromo-3-(1-cyano-2-(5-cyano-2-methoxyphenyl)vinyl)-1H-indol-1-yl)-7-oxoheptylphosphonic acid] | – | 294 µM (≈ 168 µg/mL) | – | –
COc1ccc2c(/C(C#N)=C/c3cc(C#N)ccc3OC)cn(C(=O)CCCCP(=O)([O-])O)c2c1.[Na+] [Example 11, sodium (Z)-hydrogen5-(3-(1-cyano-2-(5-cyano-2-methoxyphenyl)vinyl)-6-methoxy-1H-indol-1-yl)-5-oxopentylphosphonate] | 10 µM | 476 µM | – | –
COc1ccc(C#N)cc1/C=C(\C#N)c1cn(C(=O)OCc2ccc(NC(=O)[C@H](CCCNC(N)=O)NC(=O)[C@@H](N)C(C)C)cc2)c2ccc(Br)cc12 [Example 21, hydrochloride] | – | – | 471 µM | –
COc1ccc(C#N)cc1/C=C(\C#N)c1cn(C(=O)CCCCCCP(=O)([O-])O)c2ccc(Br)cc12.[Na+] [Example 10, sodium (Z)-hydrogen7-(5-bromo-3-(1-cyano-2-(5-cyano-2-methoxyphenyl)vinyl)-1H-indol-1-yl)-7-oxoheptylphosphonate] | 93 µM | 141 µM | – | –
COc1ccc(C#N)cc1/C=C(\C#N)c1cn(C(=O)CCCCP(=O)([O-])O)c2ccc(Br)cc12.[Na+] [Example 6, Sodium (Z)-hydrogen5-(5-bromo-3-(1-cyano-2-(5-cyano-2-methoxyphenyl)vinyl)-1H-indol-1-yl)-5-oxopentylphosphonate] | 34 µM | 206 µM | – | –
COc1ccc(C#N)cc1/C=C(\C#N)c1cn(C(=O)CCCP(=O)([O-])O)c2ccc(Br)cc12.[Na+] [Example 8, sodium (Z)-hydrogen4-(5-bromo-3-(1-cyano-2-(5-cyano-2-methoxyphenyl)vinyl)-1H-indol-1-yl)-4 oxobutylphosphonate] | < 5 µM | 71 µM | – | –
COc1ccc(C#N)cc1/C=C(\C#N)c1cn(C(=O)OCc2ccc(NC(=O)[C@H](CCCNC(N)=O)NC(=O)[C@@H](NC(=O)[C@H](CS(=O)(=O)O)NC(=O)CCOCCOCCOCCOCCNC(=O)CCN3C(=O)C=CC3=O)C(C)C)cc2)c2ccc(Br)cc12 [Example 26] | – | – | 175 µM (≈ 233 µg/mL) | –
COc1ccc(C#N)cc1/C=C(\C#N)c1cn(C(=O)OCc2ccc(NC(=O)[C@H](CCCNC(N)=O)NC(=O)[C@@H](NC(=O)[C@H](CS(=O)(=O)O)NC(=O)CCOCCOCCOCCOCCNC(=O)CCN3C(=O)CC(SC[C@H](NC(C)=O)C(=O)O)C3=O)C(C)C)cc2)c2ccc(Br)cc12 (stereo partly drawn) [Example 27, N-acetyl-S-(1-((R)-2-(((S)-1-(((S)-1-((4-(((5-bromo-3-((Z)-1-cyano-2-(5-cyano-2-methoxyphenyl)vinyl)-1H-indole-1-carbonyl)oxy)methyl)phenyl)amino)-1-oxo-5-ureidopentan-2-yl)amino)-3-methyl-1-oxobutan-2-yl)carbamoyl)-4,20-dioxo-1-sulfo-7,10,13,16-tetraoxa-3,19-diazadocosan-22-yl)-2,5-dioxopyrrolidin-3-yl)-L-cysteine] | – | – | – | efficient drug release
